Source: PubChem BioAssay AID248 (DTP/NCI, 2004)
Values joined by “and” are separate entries in the source; they are usually repeats but may differ in a detail not shown here. Equal values may be shown once. Toxic doses and inconclusive results are not listed. Cut-off read from the data, not from the text of the source: active = T/C of 150% or more; inactive = T/C below 125%.

Tested on: L1210 leukemia ip in BDF1 mice, survival T/C
Test: NCI In Vivo Anticancer Drug Screen. Data for tumor model L1210 Leukemia (intraperitoneal) in B6D2F1 (BDF1) mice
Details: endpoint: mean survival time, higher = longer survival
Summary of the method: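 Transplanted-tumor mice were given test agent; controls received vehicle only. Survival readings from the two groups were divided (treated over control).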

[1] = dose: 100.0 mg/kg/injection, schedule: Q01DX009 (ip), vehicle: Klucel (hydroxypropylcellulose) (HPC)
[2] = dose: 200.0 mg/kg/injection, schedule: Q01DX009 (ip), vehicle: Klucel (hydroxypropylcellulose) (HPC)
[3] = dose: 400.0 mg/kg/injection, schedule: Q01DX009 (ip), vehicle: Klucel (hydroxypropylcellulose) (HPC)
[4] = dose: 100.0 mg/kg/injection, schedule: Q01DX001 (ip), vehicle: saline
[5] = dose: 200.0 mg/kg/injection, schedule: Q01DX001 (ip), vehicle: saline
[6] = dose: 400.0 mg/kg/injection, schedule: Q01DX001 (ip), vehicle: saline
[7] = dose: 100.0 mg/kg/injection, schedule: Q01DX001 (ip), vehicle: saline with Tween-80
[8] = dose: 100.0 mg/kg/injection, schedule: Q04DX003 (ip), vehicle: saline with Tween-80
[9] = dose: 200.0 mg/kg/injection, schedule: Q01DX001 (ip), vehicle: saline with Tween-80
[10] = dose: 200.0 mg/kg/injection, schedule: Q04DX002 (ip), vehicle: saline with Tween-80
[11] = dose: 200.0 mg/kg/injection, schedule: Q04DX003 (ip), vehicle: saline with Tween-80
[12] = dose: 400.0 mg/kg/injection, schedule: Q01DX001 (ip), vehicle: saline with Tween-80
[13] = dose: 400.0 mg/kg/injection, schedule: Q04DX003 (ip), vehicle: saline with Tween-80
[14] = dose: 25.0 mg/kg/injection, schedule: Q01DX009 (ip), vehicle: saline
[15] = dose: 25.0 mg/kg/injection, schedule: Q04DX003 (ip), vehicle: saline

Measured: T/C

CCOC(=O)c1ccc(NC(=O)Oc2cc(C)ccc2C(C)C)cc1
inactive: [1] 94 % of control | [2] 94 % of control | [3] 94 % of control

NNc1nc(Nc2ccccc2)nc(Nc2ccccc2)n1
inactive: [4] 89 % of control | [5] 95 % of control | [6] 96 % of control

CCOC(=O)N/N=C(/C)c1ccc(C)cc1
inactive: dose: 50.0 mg/kg/injection, schedule: Q01DX009 (ip), vehicle: saline with Tween-80 95 % of control and 121 % of control | [7] 103 % of control | dose: 100.0 mg/kg/injection, schedule: Q01DX009 (ip), vehicle: saline with Tween-80 105 % of control and 89 % of control | dose: 100.0 mg/kg/injection, schedule: Q04DX002 (ip), vehicle: saline with Tween-80 95 % of control and 104 % of control | [8] 97 % of control | [9] 101 % of control | dose: 200.0 mg/kg/injection, schedule: Q01DX009 (ip), vehicle: saline with Tween-80 101 % of control and 110 % of control | [10] 101 % of control and 110 % of control | [11] 97 % of control | [12] 102 % of control | [13] 110 % of control

Cc1cc[n+](Cc2ccccc2Cl)cc1
inactive: dose: 6.25 mg/kg/injection, schedule: Q01DX009 (ip), vehicle: saline 97 % of control | dose: 6.25 mg/kg/injection, schedule: Q04DX003 (ip), vehicle: saline 96 % of control | dose: 12.5 mg/kg/injection, schedule: Q01DX009 (ip), vehicle: saline 97 % of control | dose: 12.5 mg/kg/injection, schedule: Q04DX003 (ip), vehicle: saline 107 % of control | [14] 100 % of control | [15] 89 % of control

O/N=C1\CCc2ccccc2C(O)C1c1ccccc1 (configuration not stated)
inactive: [8] 97 % of control | [11] 102 % of control | [13] 88 % of control

O=CNc1ccccc1Cc1ccccc1
inactive: [4] 101 % of control | [5] 107 % of control

CN(C)N=Nc1ccc(C(=O)N/N=C/c2ccc(Cl)cc2)cc1
inactive: dose: 50.0 mg/kg/injection, schedule: Q04DX003 (ip), vehicle: Klucel (hydroxypropylcellulose) (HPC) 99 % of control | dose: 100.0 mg/kg/injection, schedule: Q04DX003 (ip), vehicle: Klucel (hydroxypropylcellulose) (HPC) 97 % of control | dose: 200.0 mg/kg/injection, schedule: Q04DX003 (ip), vehicle: Klucel (hydroxypropylcellulose) (HPC) 103 % of control

CC(C)CN1CCCC(=O)C(O)CCC1 (configuration not stated)
inactive: dose: 100.0 mg/kg/injection, schedule: Q01DX001 (ip), vehicle: acetone 101 % of control

CC(=O)Oc1cc(C)[nH]c(=O)c1
inactive: [4] 101 % of control | [5] 105 % of control | [6] 101 % of control

COc1ccc(OCCO)cc1
inactive: [1] 95 % of control | dose: 100.0 mg/kg/injection, schedule: Q04DX002 (ip), vehicle: Klucel (hydroxypropylcellulose) (HPC) 96 % of control | [2] 98 % of control | dose: 200.0 mg/kg/injection, schedule: Q04DX002 (ip), vehicle: Klucel (hydroxypropylcellulose) (HPC) 93 % of control | [3] 103 % of control | dose: 400.0 mg/kg/injection, schedule: Q04DX002 (ip), vehicle: Klucel (hydroxypropylcellulose) (HPC) 100 % of control

CCN(CC)C(=O)C1CCC(CCc2c[nH]c3ccccc23)NC1 (configuration not stated)
inactive: [4] 94 % of control

CCOC(=O)Nc1cc2c(c(NC(=O)OCC)n1)N=C(C)CN2 (tested in a mixture with another compound)
inactive: [7] 95 % of control | [9] 95 % of control | [10] 95 % of control | [12] 95 % of control | dose: 400.0 mg/kg/injection, schedule: Q04DX002 (ip), vehicle: saline with Tween-80 103 % of control | dose: 600.0 mg/kg/injection, schedule: Q04DX002 (ip), vehicle: saline with Tween-80 103 % of control

Cc1cc(NC(=S)Nc2ccccc2)c(NC(=S)Nc2ccccc2)cc1C
inactive: dose: 12.5 mg/kg/injection, schedule: Q01DX005 (ip), vehicle: Klucel (hydroxypropylcellulose) (HPC) 103 % of control | dose: 25.0 mg/kg/injection, schedule: Q01DX005 (ip), vehicle: Klucel (hydroxypropylcellulose) (HPC) 87 % of control | dose: 25.0 mg/kg/injection, schedule: Q01DX009 (ip), vehicle: Klucel (hydroxypropylcellulose) (HPC) 96 % of control | dose: 50.0 mg/kg/injection, schedule: Q01DX005 (ip), vehicle: Klucel (hydroxypropylcellulose) (HPC) 103 % of control | dose: 50.0 mg/kg/injection, schedule: Q01DX009 (ip), vehicle: Klucel (hydroxypropylcellulose) (HPC) 96 % of control | dose: 100.0 mg/kg/injection, schedule: Q01DX005 (ip), vehicle: Klucel (hydroxypropylcellulose) (HPC) 97 % of control and 101 % of control | [1] 93 % of control | dose: 150.0 mg/kg/injection, schedule: Q01DX009 (ip), vehicle: Klucel (hydroxypropylcellulose) (HPC) 97 % of control | dose: 335.0 mg/kg/injection, schedule: Q01DX009 (ip), vehicle: Klucel (hydroxypropylcellulose) (HPC) 90 % of control | dose: 400.0 mg/kg/injection, schedule: Q01DX005 (ip), vehicle: Klucel (hydroxypropylcellulose) (HPC) 101 % of control

N[C@@H](Cc1ccc(O)c(O)c1)C(=O)O
inactive: [14] 101 % of control | [15] 94 % of control | dose: 50.0 mg/kg/injection, schedule: Q01DX001 (ip), vehicle: saline 87 % of control | dose: 50.0 mg/kg/injection, schedule: Q01DX009 (ip), vehicle: saline 100 % of control and 105 % of control | dose: 50.0 mg/kg/injection, schedule: Q04DX003 (ip), vehicle: saline 103 % of control and 105 % of control | [4] 94 % of control | dose: 100.0 mg/kg/injection, schedule: Q01DX009 (ip), vehicle: saline 92 % of control and 97 % of control | dose: 100.0 mg/kg/injection, schedule: Q04DX003 (ip), vehicle: saline 110 % of control | [5] 113 % of control | dose: 200.0 mg/kg/injection, schedule: Q01DX009 (ip), vehicle: saline 97 % of control and 105 % of control | dose: 200.0 mg/kg/injection, schedule: Q04DX003 (ip), vehicle: saline 98 % of control and 105 % of control | [6] 94 % of control | dose: 400.0 mg/kg/injection, schedule: Q01DX009 (ip), vehicle: saline 108 % of control and 112 % of control | dose: 400.0 mg/kg/injection, schedule: Q04DX003 (ip), vehicle: saline 94 % of control and 97 % of control

CC(C)(C)C1CCNC(=O)CC1 (configuration not stated)
inactive: dose: 10.0 mg/kg/injection, schedule: Q01DX009 (ip), vehicle: Klucel (hydroxypropylcellulose) (HPC) 95 % of control | dose: 20.0 mg/kg/injection, schedule: Q01DX009 (ip), vehicle: Klucel (hydroxypropylcellulose) (HPC) 103 % of control | dose: 20.0 mg/kg/injection, schedule: Q04DX003 (ip), vehicle: Klucel (hydroxypropylcellulose) (HPC) 107 % of control | dose: 40.0 mg/kg/injection, schedule: Q04DX003 (ip), vehicle: Klucel (hydroxypropylcellulose) (HPC) 103 % of control | dose: 75.0 mg/kg/injection, schedule: Q01DX001 (ip), vehicle: carboxymethylcellulose (CMC) 102 % of control | dose: 150.0 mg/kg/injection, schedule: Q01DX001 (ip), vehicle: carboxymethylcellulose (CMC) 102 % of control | dose: 300.0 mg/kg/injection, schedule: Q01DX001 (ip), vehicle: carboxymethylcellulose (CMC) 96 % of control

CCCCSc1nc(NCC)nc(NCC)n1
inactive: dose: 100.0 mg/kg/injection, schedule: Q04DX002 (sc), vehicle: olive oil, sesame oil, peanut oil 102 % of control | dose: 200.0 mg/kg/injection, schedule: Q04DX002 (sc), vehicle: olive oil, sesame oil, peanut oil 105 % of control | dose: 400.0 mg/kg/injection, schedule: Q04DX002 (sc), vehicle: olive oil, sesame oil, peanut oil 115 % of control
